Measurements from US20030092683A1, “Use of tetracyclines as neuro-protective agents and for the treatment of parkinson's disease and related disorders” (priority 2001, published 2003).

Test system: TH-positive (dopaminergic) neurons in the SNpc
Test: MPTP-induced neuronal death in vivo, TH-positive neurons by immunohistochemistry
Design: species or system C57BL/6 mice
Conditions: for viable TH-positive neurons in the SNpc: MPTP 20 mg/kg x4 on day 3, analysed 7 days after last MPTP, MPTP without minocycline 37% of control
Method: On day 3 mice were injected with MPTP (20 mg/kg×4). Seven days following the last injection of MPTP, the brains were analyzed by immun histochemistry to detect and quantify tyrosin hydroxylase (TH)-positive neurons.

CN(C)c1ccc(O)c2c1C[C@H]1C[C@H]3[C@H](N(C)C)C(O)=C(C(N)=O)C(=O)[C@@]3(O)C(O)=C1C2=O [minocycline]
viable TH-positive neurons in the SNpc (minocycline 90 mg/kg p.o. daily for nine days): 56 % of control
viable TH-positive neurons in the SNpc, treatment after MPTP (minocycline 120 mg/kg p.o. beginning 4 h after the last MPTP injection, MPTP without minocycline 36% of control, p<0.05): 66 % of control
viable TH-positive neurons in the SNpc (minocycline 120 mg/kg p.o. daily for nine days): 77 % of control
